According to patent US20260061085A1, “CYCLIC PEPTIDE AND PREPARATION METHOD THEREFOR, AND COMPLEX COMPRISING SAME AND USE THEREOF” (HEXIN (SUZHOU) PHARMACEUTICAL TECHNOLOGY CO., LTD., priority 2022, published 2026):
Square brackets hold non-standard residues; d marks the D form. Peptide text beside a SMILES is read from it. NMeN = CN[C@@H](CC(N)=O)C(=O)O; Orn = NCCC[C@H](N)C(=O)O; Dab = NCC[C@H](N)C(=O)O; Sar = CNCC(=O)O

B1: APN21-Cy3 fluorescent peptide (Example 21) (peptide)
peptide: cyclo(N[Sar]RTKY)
modifications: not fully specified (residue 5); also: Cy3 dye attached via Cy3-NHS, site not given here
notes: also called cyclo(NSarRTKY)

How the values were obtained:
[1] = Stability by in vitro constant temperature (37° C.) incubation in mouse plasma, LC-MS/MS; assay type: in vitro ADME
Procedure: (§1) The experiment was carried out by using an in vitro constant temperature (37° C.) incubation method to study the stability of the cyclic peptide APN21 of Example 21 and the cyclic peptide KE5 of Comparative Example 1 in mouse plasma or PBS (1.0 μg/mL). The two cyclic peptides were dissolved in 1 mL of mouse […], respectively, and incubated at 37° C. for 0 h, 0.5 h, 1 h, 4 h, 24 h, and 48 h, and a percentage of drug remaining was then measured and determined. PBS was used as a negative control group. Peak areas of the drug and an internal standard were measured using an LC-MS/MS method, and ratios of the peaks were used instead of the drug concentration for calculation.

[2] = Stability by in vitro constant temperature (37° C.) incubation in PBS, LC-MS/MS; assay type: physicochemical
Procedure: as §1

[3] = test system: HT-1080 tumor-bearing mice; experiment: Small-animal PET/CT imaging of HT-1080 tumor-bearing mice with CD13 blocking; assay type: in vivo; conditions: co-injected with unlabeled NGR peptide 15 mg/kg, tail vein, 0.5, 1 and 2 hours after injection, versus unblocked APN21 Group
Procedure: HT-1080 cells were taken from normal NCr nude mice (18-25 g, 4-6 weeks old, n=3), and 2λ10^6 cells were implanted subcutaneously in right shoulders of mice in a mixture of 200 μL phosphate buffer and matrix gel (v/v, 1/1). […] PET/CT and image analysis were performed using a small-animal NovclMedcal PET/CT scanner (Novel Medical Equipment Ltd., Beijing). Maximum tangential and radial half-widths of the scanner in a center of field of view were 1.5 mm, and at an edge of the field of view were 1.8 mm. […] Static PET/CT images were obtained for 15 min at 0.5, 1, and 2 hours after intravenous injection. […] Static PET/CT images were obtained for 15 min at 0.5, 1, and 2 hours after intravenous injection. […] Static PET/CT images were obtained for 15 min at 0.5, 1, and 2 hours after intravenous injection. […] […] PET and CT images were acquired using NMSoft workstation software (Novel Medical Equipment Ltd., Beijing), and data were given as a percentage of injected dose per gram of tissue or organ (ID/g), and were determined through decay correction for each sample (standardized to a known weight of the injected dose).

HT-1080 cells = experiment: Relative cell uptake of Cy3 fluorescent peptides by HT-1080 cells; assay type: cell-based, human; conditions: Cy3 fluorescent peptide, 37° C. 30 min, multiple of KE5-Cy3 uptake taken as 1.00
Procedure: The binding affinity of the polypeptides in the examples and comparative examples to an HT-1080 cell line was identified through cell uptake studies.
The human fibrosarcoma cell line HT-1080 was cultured in Dulbecco's Modified Eagle Medium (DMEM) (Gibco) mixed with 10% sterile filtered fetal bovine serum (FBS) and 1% penicillin-streptomycin antibiotic solution. The cell culture was maintained in a controlled environment at 37° C. and 5% CO2, and subculture was performed every 3-4 days. 24 hours prior to the experiment, cells were seeded in a 96-well plate (5000 cells per well) and cultured overnight until the cells adhered to a wall. Before the experiment, cells were washed twice with […] of phosphate-buffered saline (PBS) to remove a growth medium.
Purification is performed through HPLC.
HT-1080 cells were treated with KE5-Cy3 fluorescent peptide of Comparative Example 1.
(§2) After incubation at 37° C. for 30 min, the cells were washed twice with PBS, an intracellular fluorescence intensity was measured using a fluorescence microplate reader (with an […]) to evaluate the uptake of KE5-Cy3 fluorescent peptide by HT-1080 cells.
(§3) 10 μL of CCK-8 were added to each group of cells and incubated for 4 h, the cells were then read using a microplate reader (with a wavelength of 490 nm), and errors in fluorescence intensity of each group of cells caused by difference in a number of cells was corrected by CCK-8.
Each group was subjected to the above operation three times to determine an optimal concentration for the uptake of KE5-Cy3 fluorescent peptide by HT-1080 cells.
(§4) HT-1080 cells were treated with the APN-Cy3 fluorescent peptide of each of the Examples, wherein a concentration of each APN-Cy3 fluorescent peptide was an optimal concentration determined by KE5-Cy3 fluorescent peptides of Comparative Example 1 according to the uptake by the HT-1080 cells.
as §2, with “APN-Cy3” for “KE5-Cy3”
A relative cell uptake (RCU) for each APN-Cy3 fluorescent peptide relative to the KE5-Cy3 fluorescent peptide was calculated using the following formula: […]

[4] = molecular target: T1, Aminopeptidase N (APN, also known as CD13) (human, UniProt P15144 2-967); experiment: Cy3 fluorescence uptake by HT-1080 cells, 37 C 30 min, microplate reader, CCK-8 corrected, relative to KE5-Cy3
T1 construct: whole, on cells; The assay itself used HT-1080 cells (endogenous expression, not transfected); also called CD13 protein; CD13 receptor
T1 sequence (P15144 2-967): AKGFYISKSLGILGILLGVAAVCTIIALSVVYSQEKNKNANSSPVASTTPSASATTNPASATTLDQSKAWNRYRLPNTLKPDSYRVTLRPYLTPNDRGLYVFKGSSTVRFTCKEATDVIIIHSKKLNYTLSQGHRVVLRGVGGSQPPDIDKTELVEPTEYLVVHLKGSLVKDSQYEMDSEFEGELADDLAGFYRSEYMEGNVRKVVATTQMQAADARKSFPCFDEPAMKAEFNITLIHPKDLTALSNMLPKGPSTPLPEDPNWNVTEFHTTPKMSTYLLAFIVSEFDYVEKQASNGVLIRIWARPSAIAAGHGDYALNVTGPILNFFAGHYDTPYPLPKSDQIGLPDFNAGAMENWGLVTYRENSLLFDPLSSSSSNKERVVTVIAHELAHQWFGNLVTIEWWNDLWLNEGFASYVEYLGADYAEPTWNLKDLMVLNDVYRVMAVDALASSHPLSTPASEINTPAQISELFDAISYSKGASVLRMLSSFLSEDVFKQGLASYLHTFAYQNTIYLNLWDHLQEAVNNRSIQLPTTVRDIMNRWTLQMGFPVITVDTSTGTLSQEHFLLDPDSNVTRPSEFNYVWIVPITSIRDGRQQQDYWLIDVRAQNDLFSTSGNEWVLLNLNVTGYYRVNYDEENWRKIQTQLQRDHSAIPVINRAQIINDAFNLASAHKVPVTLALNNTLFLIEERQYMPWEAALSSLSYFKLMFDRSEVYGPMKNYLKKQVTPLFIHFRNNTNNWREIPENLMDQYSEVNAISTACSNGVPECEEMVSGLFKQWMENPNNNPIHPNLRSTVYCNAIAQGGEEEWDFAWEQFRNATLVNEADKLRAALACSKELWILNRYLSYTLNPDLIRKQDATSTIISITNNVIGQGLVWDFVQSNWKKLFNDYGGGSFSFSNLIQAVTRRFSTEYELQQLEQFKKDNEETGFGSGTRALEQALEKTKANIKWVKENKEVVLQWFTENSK
Procedure: as §4
as §2, with “APN-Cy3” for “KE5-Cy3”
as §3

[5] = 0.5 h, read-out: percentage of drug remaining
[6] = 1 h, read-out: percentage of drug remaining
[7] = 4 h, read-out: percentage of drug remaining
[8] = 24 h, read-out: percentage of drug remaining
[9] = 48 h, read-out: percentage of drug remaining

Molecule	RCU (relative cell uptake) (HT-1080 cells)	also measured
N=C(N)NCCC[C@@H]1NC(=O)CNC(=O)[C@H](CC(N)=O)NC(=O)[C@H](CCCCN)NC(=O)[C@H](CCC(=O)O)NC1=O [Comparative Example 1, cyclo(NGREK), reference compound] (cyclo(EKNGR))	–	percentage of drug remaining ([1]; 0 h): 100%; remaining at 0.5 h, 1 μg/mL [1, 5]: 94.8%; remaining at 1 h, 1 μg/mL [1, 6]: 89.4%; remaining at 4 h, 1 μg/mL [1, 7]: 80.2%; remaining at 24 h, 1 μg/mL [1, 8]: 39.8%; remaining at 48 h, 1 μg/mL [1, 9]: 12.4%; percentage of drug remaining ([2]; 0 h): 100%; remaining at 0.5 h, 1 μg/mL [2, 5]: 99.1%; remaining at 1 h, 1 μg/mL [2, 6]: 96.6%; remaining at 4 h, 1 μg/mL [2, 7]: 91.4%; remaining at 24 h, 1 μg/mL [2, 8]: 73.4%; remaining at 48 h, 1 μg/mL [2, 9]: 42.7%
^68Ga-APN21-Bn-SCN-NOTA: ^68Ga-labelled conjugate of cyclic peptide APN21 (Example 21) with NOTA-Bn-SCN chelator (cyclo(N[Sar]RTKY); not fully specified (residue 5); also: 68Ga-NOTA-Bn-SCN chelator conjugated, site not given here)	–	PET/CT signal intensity (tumor uptake) in APN21-Blocking Group [3]: significantly weaker than that of the unblocked APN21 group
cyclo(NGRDK) (cyclic; circular) [Example 1]	0.65	–
cyclo(NGRTCE) (cyclic; circular) [Example 10]	0.77	–
cyclo(NGRTCF) (cyclic; circular) [Example 12]	0.82	–
cyclo(NGRTCG) (cyclic; circular) [Example 13]	0.49	–
cyclo(NGRTCV) (cyclic; circular) [Example 11]	0.92	–
cyclo(NGRTCY) (cyclic; circular) [Example 14]	1.05	–
cyclo(NGRTKF) (cyclic; circular) [Example 7]	0.56	–
cyclo(NGRTKG) (cyclic; circular) [Example 8]	1.14	–
cyclo(NGRTKf) (cyclo(NGRTK[dF]); SMILES C[C@@H](O)[C@@H]1NC(=O)[C@H](CCCNC(=N)N)NC(=O)CNC(=O)[C@H](CC(N)=O)NC(=O)[C@@H](Cc2ccccc2)NC(=O)[C@H](CCCCN)NC1=O) [Example 17]	0.49	–
cyclo(NSarRTDabY) (cyclo(N[Sar]RT[Dab]Y); SMILES C[C@@H](O)[C@@H]1NC(=O)[C@H](CCCNC(=N)N)NC(=O)CN(C)C(=O)[C@H](CC(N)=O)NC(=O)[C@H](Cc2ccc(O)cc2)NC(=O)[C@H](CCN)NC1=O) [Example 24]	0.57	–
cyclo(NSarRTOrnY) (cyclo(N[Sar]RT[Orn]Y); SMILES C[C@@H](O)[C@@H]1NC(=O)[C@H](CCCNC(=N)N)NC(=O)CN(C)C(=O)[C@H](CC(N)=O)NC(=O)[C@H](Cc2ccc(O)cc2)NC(=O)[C@H](CCCN)NC1=O) [Example 23]	1.20	–
cyclo(NSarRTcY) (cyclo(N[Sar]RT[dC]Y); SMILES C[C@@H](O)[C@@H]1NC(=O)[C@H](CCCNC(=N)N)NC(=O)CN(C)C(=O)[C@H](CC(N)=O)NC(=O)[C@H](Cc2ccc(O)cc2)NC(=O)[C@@H](CS)NC1=O) [Example 25]	0.72	–
cyclo(NmeGRTDabY) (cyclo([NMeN]GRT[Dab]Y); SMILES C[C@@H](O)[C@@H]1NC(=O)[C@H](CCCNC(=N)N)NC(=O)CNC(=O)[C@H](CC(N)=O)N(C)C(=O)[C@H](Cc2ccc(O)cc2)NC(=O)[C@H](CCN)NC1=O) [Example 26]	0.41	–
cyclo(NmeGRTKY) (cyclo([NMeN]GRTKY); SMILES C[C@@H](O)[C@@H]1NC(=O)[C@H](CCCNC(=N)N)NC(=O)CNC(=O)[C@H](CC(N)=O)N(C)C(=O)[C@H](Cc2ccc(O)cc2)NC(=O)[C@H](CCCCN)NC1=O) [Example 20]	0.78	–
cyclo(NmeGRTOrnY) (cyclo([NMeN]GRT[Orn]Y); SMILES C[C@@H](O)[C@@H]1NC(=O)[C@H](CCCNC(=N)N)NC(=O)CNC(=O)[C@H](CC(N)=O)N(C)C(=O)[C@H](Cc2ccc(O)cc2)NC(=O)[C@H](CCCN)NC1=O) [Example 27]	0.37	–
cyclo(NmeGRTcY) (cyclo([NMeN]GRT[dC]Y)) [Example 28]	0.62	–
B1	–	RCU (relative cell uptake, KE5-Cy3 = 1.00) [4]: 5.68 fold of KE5-Cy3
